Data taken from publication PMC12430429, “Synthesis, Structure, DNA/BSA Binding, DNA Cleaving, Cytotoxic and SOD Mimetic Activities of Copper(II) Complexes Derived from Methoxybenzylamine Schiff Base Ligands” (Molecules, 2025).

Assays:
ct-DNA = assay: DNA binding study by UV–Vis absorption titration; parameters: species or system calf; settings: intraligand band ca. 370 nm on addition of ct-DNA
Experimental: The absorption spectra of complexes 4a–c (1 × 10^−[…]) were recorded in the presence of increasing amounts of ct-DNA. Intraligand absorption bands with λmax in the region 350 –380 nm were used to monitor the interaction of compounds with ct-DNA. The intraligand absorption value was chosen as λmax = […], so the absorbance of DNA would not interfere. The UV–Vis spectrum affected by DNA addition is shown for complexes 4a in Figure 3, and the UV–Vis spectra of other compounds are provided in the Supplementary Materials (Figure S3-1).
The DNA binding constants (Kb) of the complexes were determined by the Wolfe–Shimer equation (Equation (1)) and the respective plots (Figure 3 and Figure S3-1).
The interactions of prepared complexes 4a–c with ct-DNA have been studied by UV–Vis monitored titration. The ct-DNA solution was prepared by dissolving 6 mg of ct-DNA in 5 mL of citrate buffer (composed of 15 mM sodium citrate and 150 mM sodium chloride mixture solution, at pH = 7.0). The concentration of ct-DNA was then determined by UV–Vis spectroscopy with the molar absorption coefficient of ct-DNA at 260 nm (6600 M^−1cm^−1). The studied complexes were dissolved in DMSO, from which working solutions were prepared by dilution using citrate buffer solution. Increasing concentrations of ct-DNA were then added to a buffer/DMSO solution (<1% DMSO) of the corresponding complex (1 × 10^−[…]).
For the values of the binding strength of the interaction between the complex and the DNA molecule, binding constants Kb were calculated by the ratio of slope to the y intercept in the plots [DNA]/(εA-εf) compared to [DNA], according to the Wolfe–Shimer equation (Equation (1)):(1) [DNA]/(εA−εf)=[DNA]/(εb−εf)+1/Kb(εb−εf) where [DNA] is the concentration of DNA in base pairs, εf is the extinction coefficient of the free complex at the corresponding λmax, εA = Aobsd/[compound] and εb is the extinction coefficient of the complex in the fully bound form.

S. cerevisiae cells = assay: Resazurin cytotoxicity assay (mitochondrial activity); format: cell-based; settings: for Cell Death (%) / Reduction Percentage (%): 3 h incubation
Description: The resazurin-based model that monitors mitochondrial activity is widely used as an indicator of cell viability, proliferation and cytotoxicity. This method is based on the reduction of resazurin to resorufin by mitochondrial enzymes, as carriers of diaphorase activities, like NADPH-dehydrogenase, which are responsible for the transference of electrons from NADPH^+, H^+ to resazurin. The reduction of resazurin correlates with the number of live bacterial or mammalian cells or fungi. Furthermore, S. cerevisiae is an established model system for eukaryotic organisms. They have conserved cellular processes with high homology to those of humans. They proliferate rapidly and are even used as a model to study the effects of anticancer agents. The use of S. cerevisiae in resazurin redox testing is a good alternative to conventional cell viability testing techniques.
The assay is based on the ability of living cells to reduce blue resazurin (7-hydroxy-3H-phenoxazin-3-one 10-oxide) to pink resorufin (7-hydroxy-3H-phenoxazin-3-one) which is measurable by the UV–Vis spectrophotometric or fluorometric method (AlamarBlue^TM). Living cells have active N-methylphenazinium methosulfate that catalyzes the redox reaction in mitochondria of NADH and blue resazurin to produce pink resorufin (Scheme 2). This test is used as an oxidation–reduction indicator in cell viability assays for yeasts and mammalian cells. Reduction of the dye by viable cells decreases the amount of the oxidized form (blue) and, at the same time, increases the amount of its fluorescent intermediate (pink), indicating the degree of cytotoxicity caused by the test material.
S. cerevisiae cells (CCY 21-4-64; Libáň, Czech Republic) were cultured at 28 °C/24h on Saburaud’s dextrose agar with chloramphenicol (Merck, Boston, MA, USA). Subsequently, after 24 h, S. cerevisiae cells were inoculated into sterile liquid YPD medium (Sigma–Aldrich, St. Louis, MO, USA) and cultivation continued at 28 °C/24 h. In the exponential growth phase, cells were centrifuged (8.000 g/3 min), washed twice with sterile physiological solution (0.9% NaCl) and pipetted at a concentration of 1 × 10^9 cells/mL in sterile microtubes (modified procedure from Bitacura, 2018). Sterile physiological solution and copper complexes at concentrations of 1 × 10^−3 M, 3 × 10^−3 M and 5 × 10^−3 M were added to the centrifuged biomass to a total volume of 1 mL and individual samples were cultured in an incubator at 28 °C/3 h. After 3 h, 0.1 mL of ResazurinOX (in vitro toxicology assay kit based on resazurin, Sigma, USA) was added to each sample and the samples were allowed to culture for 2 h. After incubation, the biomass in the samples was separated from the supernatant by centrifugation (8000 g/5 min). The separated solution was diluted in a ratio of 1:1 with physiological solution and subjected to the measurement of UV spectra by the spectrophotometric method according to the recommended protocol of the kit manufacturer (Sigma, USA) on a GENESYS 10S UV–Vis spectrophotometer (Thermo Scientific, USA) in the range of 500–800 nm, using a 1 cm long cuvette.
Cells’ innate metabolic was measured by using an established formula for the reduction percentage. The reduction percentage was calculated using the following formula:(7) Red(%)=ƐOX_600 nm×A570 nm_sample−ƐOX_570 nm×A600 nm_sample/ƐRED_570 nm×A600 nm_C−−ƐRED_600 nm×A570 nm_C−×100

HepG2 cells = assay: MTT cytotoxicity assay, HepG2; format: cell-based, human; settings: 72 h
Experimental: The cytotoxicity study of the prepared copper(II) complexes was performed using the MTT assay on human cell lines—A549 (adenocarcinoma human alveolar basal epithelial cell line), HepG2 (human liver cancer cell line) and HEL (human lung fibroblast cell line, normal cells).
The cytotoxicity of the prepared copper(II) complexes in human cell lines was evaluated using the 3-(4,5-dimethylthiazol-2-yl)-2,5-diphenyltetrazolium bromide (MTT) assay following the protocol by Mosmann. Briefly, A549 (human lung epithelial cells, carcinoma), HepG2 (human liver epithelial cells, carcinoma) and HEL (human lung fibroblast cells, normal) cells were seeded in plastic 96-well plates at a density of 1.5–2 × 10^4 cells per well. […] After the treatment, the samples were washed with phosphate-buffered saline (PBS), followed by 4 h of incubation with 1 mg/mL of MTT. Subsequently, the MTT solution was removed, and the formed formazane solids were dissolved in dimethyl sulfoxide for 30 min. The photometric evaluation (at 540 nm and 690 nm) was carried out using an xMark™ Microplate Absorbance Spectrophotometer (Bio-Rad, Hercules, CA, USA) [88].
A549 (ATCC® CCL-185), HepG2 (ATCC® HB-8065) and HEL299 (ATCC® CCL-137) cells were obtained from Lambda Life (Bratislava, Slovakia). A549 cells were kept in Dulbecco’s Modified Eagle’s Medium (DMEM) supplemented with 10% fetal bovine serum (FBS) and 1% antibiotics (penicillin and streptomycin). HepG2 cells were kept in Williams medium supplemented with 10% fetal bovine serum (FBS) and 1% antibiotics (penicillin and streptomycin). HEL299 cells were kept in Minimum Essential Medium (MEM) supplemented with 10% fetal bovine serum (FBS), 1% antibiotics (penicillin and streptomycin) and 1% non-essential amino acids (NEAA). The cells were cultured in a humidified atmosphere of 5% CO2 at 37 °C. Once the cells reached approximately 80% confluence, they were harvested and subcultured after trypsin treatment.

Compound: COc1cccc(CN=Cc2ccccc2[O][Cu][O]c2ccccc2C=NCc2cccc(OC)c2)c1 [Complex 4b, [Cu (Sal-3-MeOBn)2]]
- decrease of intensity (ΔA/A0), hypochromism (ct-DNA): 26%
- Cell Death (%) (S. cerevisiae cells; complex 1 mM): 76.0%
- Reduction Percentage (%) (S. cerevisiae cells; complex 1 mM): 24.0%
- Cell Death (%) (S. cerevisiae cells; complex 3 mM): 92.6%
- Reduction Percentage (%) (S. cerevisiae cells; complex 3 mM): 7.4%
- Cell Death (%) (S. cerevisiae cells; complex 5 mM): 99.0%
- Reduction Percentage (%) (S. cerevisiae cells; complex 5 mM): 1.0%
- IC50 (HepG2 cells): 32.8 ± 4.9 µM

Compound: COc1ccc(CN=Cc2ccccc2[O-])cc1.COc1ccc(CN=Cc2ccccc2[O-])cc1.[Cl-].[Cl-].[Cu+2].[Cu+2] [Complex 4c, [Cu2 (Sal-4-MeOBn)2 Cl2]]
- decrease of intensity (ΔA/A0), hypochromism (ct-DNA): 28%
- Reduction Percentage (%) (S. cerevisiae cells; complex 1 mM): 5.2%
- Cell Death (%) (S. cerevisiae cells; complex 3 mM): 91.5%
- Reduction Percentage (%) (S. cerevisiae cells; complex 3 mM): 8.5%
- Cell Death (%) (S. cerevisiae cells; complex 5 mM): 97.4%
- Reduction Percentage (%) (S. cerevisiae cells; complex 5 mM): 2.6%
- cytotoxic activity (cell death) (S. cerevisiae cells; over the tested concentrations 1–5 mM): above 94%
- IC50 (HepG2 cells): 21.6 ± 4.9 µM

Compound: COc1ccccc1CN=Cc1ccccc1[O-].COc1ccccc1CN=Cc1ccccc1[O-].[Cl-].[Cl-].[Cu+2].[Cu+2] [Complex 4a, [Cu2 (Sal-2-MeOBn)2 Cl2]]
- decrease of intensity (ΔA/A0), hypochromism (ct-DNA): 32%
- Cell Death (%) (S. cerevisiae cells; complex 1 mM): 67.1%
- Reduction Percentage (%) (S. cerevisiae cells; complex 1 mM): 32.9%
- Cell Death (%) (S. cerevisiae cells; complex 3 mM): 91.6%
- Reduction Percentage (%) (S. cerevisiae cells; complex 3 mM): 8.4%
- Cell Death (%) (S. cerevisiae cells; complex 5 mM): 96.5%
- Reduction Percentage (%) (S. cerevisiae cells; complex 5 mM): 3.5%
- IC50 (HepG2 cells): 17.9 ± 2.6 µM
